The record followed here is patent US7417039B2, “Use of substituted azetidinone compounds for the treatment of sitosterolemia” (Schering Corporation, priority 2001, dated 2008).

Data set [1] has as its system plasma plant sterols (sitosterol and campesterol) and LDL-C. The experiment in a line: In vivo evaluation in humans: randomized, double-blind, placebo-controlled 8-week trial in homozygous sitosterolemia. Set-up: species or system human. The following applies: homozygous sitosterolemia patients, 8 weeks. The procedure:
In a randomized multicenter, double-blind, placebo-controlled, 8-week trial, 37 human patients previously diagnosed with homozygous sitosterolemia were randomized to receive Compound VIII (n=30) or placebo (n=7): • Treatment A—Compound VIII given orally as 1 dose (10 mg) per day, • Treatment B—Placebo (matching image of Compound VIII 10 mg) given orally as 1 dose per day, every morning for 8 consecutive weeks.
During the trial, subjects were instructed to maintain (as a minimum) a National Cholesterol Education Program (NCEP) Step 1 diet
Patients were instructed to maintain a diary of food intake and monitored prior to randomization, at baseline and during therapy. Results of the central diet analysis for each subject were reported as a RISCC score (Ratio of Ingested Saturated fat and Cholesterol to Calories) and as dietary components. RISCC scores indicate the potential for a diet to influence plasma lipid levels. A score ranging from 14 to 20 correlates with a NCEP step 1 diet.
Low-Density-Lipoprotein-Cholesterol (LDL-C) results were reported as direct LDL-C (plasma concentration was determined following a standard ultra centrifugation/precipitation procedure; lipid and lipoprotein analysis, see Manual of Laboratory Operations: Lipid Research Clinics Program Report. Washington, D.C.: US Department of Health, Education, and Welfare publication; 1974. NIH 75-628, vol 1, which is incorporated by reference herein or beta-quantification) and calculated LDL-C (plasma concentration; based on Freidewald equation: LDL-C=Total cholesterol minus (Triglycerides divided by 5) minus High-density-lipoprotein cholesterol (HDL-C)).
Total cholesterol and Triglycerides were determined enzymatically using a Hitachi 747 analyzer; see, Steiner P M, Freidel J, Bremner W F, Stein E A: Standardization of micromethods for plasma cholesterol, triglyceride and HDL-cholesterol with the Lipid Clinics' methodology [abstract]. J Clin Chem Clin Biochem 1981;19:850, which is incorporated by reference herein.
HDL-C was determined enzymatically after heparin and magnesium precipitation; see, Steele W B, Koehle D F, Azar M M, Blaszkowski T P, Kuba K, Dempsey M E: Enzymatic determinations of cholesterol in high density lipoprotein fractions prepared by precipitation technique. Clin Chem 1976;22:98-101, which is incorporated by reference herein.
Plasma plant sterols (sitosterol and campesterol) and LDL-C were assessed at baseline (Day 1) and at endpoint (average of Weeks 6 and 8 values). See: Salen, Gerald; Shore, Virgie; Tint, G S; Forte, T: Shefer, S; Horak, I; Horak, E; Dayal, B; Nguyen, L.; Batta, A K; Lindgren, F T; Kwiterovich, Jr, P O, “Increased sitosterol absorption, decreased removal and expanded body pools compensate for reduced cholesterol synthesis in sitosterolemia with xanthomatosis”, J Lipid Res, Vol. 30, pp 1319-30, (1989) and Lutjohann, D; Bjorkhem, I; Beil, U F, and von Bergmann, K, “Sterol absorption and sterol balance in phytosterolemia evaluated by deuterium-labeled sterols: effect of sitostanol treatment” J Lipid Res. Vol. 36:(8), pp 1763-73, (1995), each of which is incorporated by reference herein.

The test system of the next data set is Sitosterol Absorption. The experiment in a line: In vivo evaluation in mice: [3H]-sitosterol absorption and hepatic accumulation. The procedure: In vivo activity of compound VIII in mice was determined by the following procedure:
Male ApoE knockout mice, age 6 wks, were received from Jackson Laboratory along with age-matched C57BL/J. The mice were housed 5 per cage, normal light cycle, normal diet. Twenty-six mice of each variety were weighed and housed, 1 per cage, in suspended wire cages with normal light cycle, normal diet. After three days, the mice were reweighed. Based on body weight, the mice were divided into 5 groups for each type of treatment:
Control (corn oil) and Compositions including Compound VIII at 0.3, 1, 3, and 10 mg/kg of body weight per day.
Preparation of Compositions including Compound VIII based on 22 g average mouse body weight:
The mice were gavaged using a feeding needle 30 min before receiving ^14C-cholesterol (NEN, NEC 018) and ^3H-sitosterol (NEN, CUS 030T). The radioactive dose was prepared from: • 114 μL ^3H-sitosterol stock (1 μCi/μL in ethanol); • 1.425 mL ^14C-cholesterol stock (40 μCi/mL in ethanol); • 5.7 mg cholesterol, Sigma C 8667; • 5.7 mg β-sitosterol, Sigma, S 1270; • The ethanol was removed under N2; • 5.7 ml of corn oil was added, and the mixture was warmed to 60° C.; and shaken for 1 hr.
Each 0.1 ml dose contained 2 μCi ^3H-sitosterol, 0.1 mg cold (non radioactive) sitosterol; 1 μCi ^14C-cholesterol, and 0.1 mg cold (non radioactive) cholesterol. Radioactive content was verified: 5×10 μl counted in Beckman LSC (liquid […] counter). Tritiated sitosterol was used as an “unabsorbable” marker to compare to the absorption of [^14C]-cholesterol in a mouse fecal isotope ratio cholesterol absorption model.
On the 4th, 5th, and 6th days, feces were collected and stored at −20° C. in vials just before dosing with Control or Compound VIII late in the day. Termination of the experiment on the 7th day involved sacrifice by exsanguination, removal and weighing of the liver. 3×˜250 mg samples of liver were put in vials. The liver samples were digested with 1 ml of 1N NaOH at 60° overnight, neutralized with 0.1 ml 12N HCl and counted for ^14C and ^3H. The blood samples were allowed to clot at room temp for 1 hr, then centrifuged at 1000 G for 15 min. The serum was analyzed for total cholesterol (see Wako C I I; see Allain C C, Poon L S, Chan C S G, Richmond W, Fu P C. Enzymatic Determination of Total Serum Cholesterol. Clin. Chem. 1974; 20:470-475, which is incorporated by reference herein) and radioactivity (2×50 μL). Fecal samples were analyzed for radioactivity by combustion in a Packard Oxidizer followed by Beckman LSC.

[2] abbreviates: 10 mg orally once daily, endpoint = average of Weeks 6 and 8.

In the case of `O=C1[C@H](CC[C@H](O)c2ccc(F)cc2)[C@@H](c2ccc(O)cc2)N1c1ccc(F)cc1` [Compound VIII, ezetimibe], in data set [1] (setting [2]), the “mean (S.E.) percent change from Baseline at endpoint in plasma Campesterol” value is recorded as −24.3% (2.9%). Moreover, the “mean (S.E.) percent change from Baseline at endpoint in plasma Sitosterol” value in data set [1] (setting [2]) is reported as −21.0% (2.8%). In addition, in data set [1] (setting [2]), the “percent change from Baseline at endpoint in LDL-C (mean, 95% CI)” value is −13.6% (−21.7%, −5.5%). The “reduction in campesterol compared to placebo” value in data set [1] (10 mg per day) was “significant (p<0.001) reduction”. In addition, the “reduction in sitosterol compared to placebo” value in data set [1] (10 mg per day) is “significant (p<0.001) reduction”. The tolerability result in data set [1] (10 mg per day) is “well tolerated”. The “% of administered dose absorbed of [^3H]-sitosterol in liver (total animal liver), average” value in the data set on Sitosterol Absorption (ApoE KO mice, 0.3 mg/kg/day by gavage in corn oil) was found to be 0.1863%; with Sitosterol Absorption (ApoE KO mice, 1 mg/kg/day by gavage in corn oil), 0.1019%; in the data set with Sitosterol Absorption (ApoE KO mice, 3 mg/kg/day by gavage in corn oil), 0.0772%; in the data set on Sitosterol Absorption (ApoE KO mice, 10 mg/kg/day by gavage in corn oil) it was 0.0780%; in the data set with Sitosterol Absorption (C57BL/6J mice, 0.3 mg/kg/day by gavage in corn oil) it was 0.1093%; with Sitosterol Absorption (C57BL/6J mice, 1 mg/kg/day by gavage in corn oil), 0.0588%. Also, the “% of administered dose absorbed of [^3H]-sitosterol in liver (total animal liver), average” value in the data set on Sitosterol Absorption (C57BL/6J mice, 3 mg/kg/day by gavage in corn oil) is given as 0.0489%; with Sitosterol Absorption (C57BL/6J mice, 10 mg/kg/day by gavage in corn oil), 0.0552%. Moreover, in the data set with Sitosterol Absorption (C57BL/6J and Apo E KO mice, 0.3-10 mg/kg/day), the “absorption and hepatic accumulation of sitosterol” value is given as “dose dependently inhibit”.
